Test results from patent US12084461B2, “Bicyclic heteroaryl derivatives” (Hoffmann-La Roche Inc., priority 2018, dated 2024).

test system: γ-secretase; assay: Cellular γ-secretase assay (inhibition of Aβ42 secretion, AlphaLisa); assay type: cell-based; conditions: human neuroglioma H4 cells overexpressing human APP695 Swedish double mutation, 24 h compound incubation
Protocol: Human neuroglioma H4 cells overexpressing human APP695 with the Swedish double mutation (K595N/M596L) were plated at 30,000 cells/well/100 μL in 96-well plates in IMDM containing 10% FCS, 0.2 mg/L Hygromycin B and incubated at 37° C., 5% CO2. 3-4 h post plating, compounds are a diluted in media and 50 μL is added as […] concentrate to achieve the final concentration. Compound incubation is performed for 24 h. Final doses typically range from 4 μM down to 0.0013 μM in half-log steps resulting in an eight-point dose response curve.
Appropriate controls using vehicle only and reference compound were applied to this assay. The final concentration of Me2SO was 0.4%.
After incubation at 37° C., 5% CO2, the supernatant was subjected to quantification of secreted Aβ42 by the means of an AlphaLisa assay kit (Human Amyloid beta 1-42 Kit: Cat # AL203C, Perkin Elmer). 20 μL of the cell culture supernatant was transferred to an assay plate. Then 10 μL, of a mixture of the AlphaLisa coupled capture antibody and the biotinylated detection antibody was added and incubated for 3 h at RT while softly shaking the assay plate. After a further addition of 20 μL of the Donor beads the assay plate was incubated for 30 min at RT and constant shaking without exposure to direct light. The assay plate was then read on a Paradigm AlphaLisa Reader using the build-in program with excitation at 680 nm and emission at 570 nm. The measured signals were then used to calculate IC50 values for inhibition of Aβ42 secretion by nonlinear regression fit analysis using XLfit 5.3 software (from IDBS company).

Point of comparison: `COc1cc(N2C[C@H]3CC[C@@H](C2)[C@@H]3Nc2nc3n(n2)CCOC3c2ccc(F)c(F)c2F)cnn1` (single isomer, unassigned) [Example 28], IC50 0.0959 µM. Against it:
- COc1cc(N2C[C@H]3CC[C@@H](C2)[C@@H]3Nc2nc3n(n2)CCCO[C@@H]3c2cccc(F)c2F)cnn1 (single isomer, unassigned) [Example 1] — within 1.5-fold, 0.0847 µM
- COc1cc(N2C[C@H]3CC[C@@H](C2)[C@@H]3Nc2nc3n(n2)CCCOC3c2cccc(F)c2F)cnn1 (single isomer, unassigned) [Example 2] — 1.9-fold lower, 0.0511 µM
- COc1cc(N2C[C@H]3CC[C@@H](C2)[C@@H]3Nc2nc3n(n2)CCCOC3c2ccc(F)cc2F)cnn1 (single isomer, unassigned) [Example 4] — within 1.5-fold, 0.0762 µM
- Cc1cc(N2C[C@H]3CC[C@@H](C2)[C@@H]3Nc2nc3n(n2)CCCO[C@@H]3c2cccc(F)c2F)ncn1 (single isomer, unassigned) [Example 5] — 2-fold lower, 0.0477 µM
- Cc1cc(N2C[C@H]3CC[C@@H](C2)[C@@H]3Nc2nc3n(n2)CCCOC3c2cccc(F)c2F)ncn1 (single isomer, unassigned) [Example 6] — 1.5-fold lower, 0.0623 µM
- Cc1cc(N2C[C@H]3CC[C@@H](C2)[C@@H]3Nc2nc3n(n2)CCCO[C@@H]3c2cc(F)cc(F)c2)ncn1 (single isomer, unassigned) [Example 7] — 2.2-fold lower, 0.0433 µM
- Cc1cc(N2C[C@H]3CC[C@@H](C2)[C@@H]3Nc2nc3n(n2)CCCO[C@@H]3c2ccc(F)cc2F)ncn1 (single isomer, unassigned) [Example 8] — within 1.5-fold, 0.0749 µM
- Cc1cc(N2C[C@H]3CC[C@@H](C2)[C@@H]3Nc2nc3n(n2)CCCOC3c2cc(F)cc(F)c2)ncn1 (single isomer, unassigned) [Example 9] — 4.4-fold lower, 0.0217 µM
- Cc1cc(N2C[C@H]3CC[C@@H](C2)[C@@H]3Nc2nc3n(n2)CCCOC3c2ccc(F)cc2F)ncn1 (single isomer, unassigned) [Example 10] — within 1.5-fold, 0.0718 µM
- COc1cc(N2C[C@H]3CC[C@@H](C2)[C@@H]3Nc2nc3n(n2)CCCOC3c2cc(F)cc(F)c2)cnn1 (single isomer, unassigned) [Example 12] — within 1.5-fold, 0.0723 µM
- COc1cc(N2C[C@H]3CC[C@@H](C2)[C@@H]3Nc2nc3n(n2)CCCO[C@@H]3c2ccc(F)c(F)c2F)cnn1 (single isomer, unassigned) [Example 13] — 4.4-fold lower, 0.0218 µM
- COc1cc(N2C[C@H]3CC[C@@H](C2)[C@@H]3Nc2nc3n(n2)CCCOC3c2ccc(F)c(F)c2F)cnn1 (single isomer, unassigned) [Example 14] — 2.1-fold lower, 0.0451 µM
- Cc1cc(N2C[C@H]3CC[C@@H](C2)[C@@H]3Nc2nc3n(n2)CCCOC3c2cc(F)cc(Cl)c2)cnn1 (single isomer, unassigned) [Example 16] — 1.5-fold lower, 0.0626 µM
- Cc1cc(N2C[C@H]3CC[C@@H](C2)[C@@H]3Nc2nc3n(n2)CCCO[C@@H]3c2ccc(F)c(F)c2F)cnn1 (single isomer, unassigned) [Example 17] — within 1.5-fold, 0.0823 µM
- COc1cc(N2C[C@H]3CC[C@@H](C2)[C@@H]3Nc2nc3n(n2)CCCO[C@@H]3c2cc(F)cc(Cl)c2)cnn1 (single isomer, unassigned) [Example 19] — 7.3-fold lower, 0.0132 µM
- COc1cc(N2C[C@H]3CC[C@@H](C2)[C@@H]3Nc2nc3n(n2)CCCOC3c2cc(F)cc(Cl)c2)cnn1 (single isomer, unassigned) [Example 20] — 2.8-fold lower, 0.0345 µM
- COc1cc(N2C[C@H]3CC[C@@H](C2)[C@@H]3Nc2nc3n(n2)CCOC3c2cc(F)cc(Cl)c2)cnn1 (single isomer, unassigned) [Example 22] — within 1.5-fold, 0.0718 µM
- Cc1cc(N2C[C@H]3CC[C@@H](C2)[C@@H]3Nc2nc3n(n2)CCOC3c2ccc(F)c(F)c2F)ncn1 (single isomer, unassigned) [Example 24] — within 1.5-fold, 0.0789 µM
- COc1cc(N2C[C@H]3CC[C@@H](C2)[C@@H]3Nc2nc3n(n2)CCO[C@@H]3c2ccc(F)c(F)c2F)ccn1 (single isomer, unassigned) [Example 31] — 1.8-fold lower, 0.052 µM
- Cc1cc(N2C[C@H]3CC[C@@H](C2)[C@@H]3Nc2nc3n(n2)CCCO[C@@H]3c2cc(F)cc(Cl)c2)ncn1 (single isomer, unassigned) [Example 33] — 8.8-fold lower, 0.0109 µM
- Cc1cc(N2C[C@H]3CC[C@@H](C2)[C@@H]3Nc2nc3n(n2)CCCOC3c2cc(F)cc(Cl)c2)ncn1 (single isomer, unassigned) [Example 34] — 4.9-fold lower, 0.0196 µM
- COc1cc(N2C[C@H]3CC[C@@H](C2)[C@@H]3Nc2nc3n(n2)CCCO[C@@H]3c2cc(F)cc(Cl)c2)ccn1 (single isomer, unassigned) [Example 35] — 15-fold lower, 0.00658 µM
- COc1cc(N2C[C@H]3CC[C@@H](C2)[C@@H]3Nc2nc3n(n2)CCCOC3c2cc(F)cc(Cl)c2)ccn1 (single isomer, unassigned) [Example 36] — 7.4-fold lower, 0.0129 µM
- COc1cc(N2C[C@H]3CC[C@@H](C2)[C@@H]3Nc2nc3n(n2)CCCOC3c2ccc(F)c(F)c2F)ccn1 (single isomer, unassigned) [Example 38] — 7.6-fold lower, 0.0127 µM
- Cc1cc(N2C[C@H]3CC[C@@H](C2)[C@@H]3Nc2nc3n(n2)CCCO[C@@H]3c2ccc(F)c(F)c2F)ncn1 (single isomer, unassigned) [Example 39] — 2.2-fold lower, 0.0439 µM
- Cc1cc(N2C[C@H]3CC[C@@H](C2)[C@@H]3Nc2nc3n(n2)CCCOC3c2ccc(F)c(F)c2F)ncn1 (single isomer, unassigned) [Example 40] — 5-fold lower, 0.0192 µM
- COc1cc(N2C[C@H]3CC[C@@H](C2)[C@@H]3Nc2nc3n(n2)CCCO[C@@H]3c2ccc(F)cc2F)cnn1 [Example 3, (9R)-9-(2,4-difluorophenyl)-N-[(1R,5S)-3-(6-methoxypyridazin-4-yl)-3-azabicyclo[3.2.1]octan-8-yl]-5,6,7,9-tetrahydro-[1,2,4]triazolo[5,1-c][1,4]oxazepin-2-amine] — within 1.5-fold, 0.0874 µM
- COc1cc(N2C[C@H]3CC[C@@H](C2)[C@@H]3Nc2nc3n(n2)CCCO[C@@H]3c2cc(F)cc(F)c2)cnn1 [Example 11, (9R)-9-(3,5-difluorophenyl)-N-[(1R,5S)-3-(6-methoxypyridazin-4-yl)-3-azabicyclo[3.2.1]octan-8-yl]-5,6,7,9-tetrahydro-[1,2,4]triazolo[5,1-c][1,4]oxazepin-2-amine] — 4.3-fold lower, 0.0221 µM
- Cc1cc(N2C[C@H]3CC[C@@H](C2)[C@@H]3Nc2nc3n(n2)CCCO[C@@H]3c2cc(F)cc(Cl)c2)cnn1 [Example 15, (9R)-9-(3-chloro-5-fluoro-phenyl)-N-[(1R,5S)-3-(6-methylpyridazin-4-yl)-3-azabicyclo[3.2.1]octan-8-yl]-5,6,7,9-tetrahydro-[1,2,4]triazolo[5,1-c][1,4]oxazepin-2-amine] — 4-fold lower, 0.0239 µM
- COc1cc(N2C[C@H]3CC[C@@H](C2)[C@@H]3Nc2nc3n(n2)CCO[C@@H]3c2cc(F)cc(Cl)c2)cnn1 [Example 21, (8R)-8-(3-chloro-5-fluoro-phenyl)-N-[(1R,5S)-3-(6-methoxypyridazin-4-yl)-3-azabicyclo[3.2.1]octan-8-yl]-6,8-dihydro-5H-[1,2,4]triazolo[5,1-c][1,4]oxazin-2-amine] — 5.8-fold lower, 0.0166 µM
- Cc1cc(N2C[C@H]3CC[C@@H](C2)[C@@H]3Nc2nc3n(n2)CCO[C@@H]3c2ccc(F)c(F)c2F)ncn1 [Example 23, (8R)—N-[(1R,5S)-3-(6-methylpyrimidin-4-yl)-3-azabicyclo[3.2.1]octan-8-yl]-8-(2,3,4-trifluorophenyl)-6,8-dihydro-5H-[1,2,4]triazolo[5,1-c][1,4]oxazin-2-amine] — 1.6-fold lower, 0.0597 µM
- Cc1cc(N2C[C@H]3CC[C@@H](C2)[C@@H]3Nc2nc3n(n2)CCO[C@@H]3c2cc(F)cc(Cl)c2)ncn1 [Example 25, (8R)-8-(3-chloro-5-fluoro-phenyl)-N-[(1R,5S)-3-(6-methylpyrimidin-4-yl)-3-azabicyclo[3.2.1]octan-8-yl]-6,8-dihydro-5H-[1,2,4]triazolo[5,1-c][1,4]oxazin-2-amine] — 4.6-fold lower, 0.0208 µM
- COc1cc(N2C[C@H]3CC[C@@H](C2)[C@@H]3Nc2nc3n(n2)CCO[C@@H]3c2ccc(F)c(F)c2F)cnn1 [Example 27, (8R)—N-[(1R,5S)-3-(6-methoxypyridazin-4-yl)-3-azabicyclo[3.2.1]octan-8-yl]-8-(2,3,4-trifluorophenyl)-6,8-dihydro-5H-[1,2,41]triazolo[5,1-c][1,4]oxazin-2-amine] — within 1.5-fold, 0.0774 µM
- COc1cc(N2C[C@H]3CC[C@@H](C2)[C@@H]3Nc2nc3n(n2)CCO[C@@H]3c2cc(F)cc(Cl)c2)ccn1 [Example 29, (8R)-8-(3-chloro-5-fluoro-phenyl)-N-[(1R,5S)-3-(2-methoxy-4-pyridyl)-3-azabicyclo[3.2.1]octan-8-yl]-6,8-dihydro-5H-[1,2,4]triazolo[5,1-c][1,4]oxazin-2-amine] — 8.6-fold lower, 0.0112 µM
- COc1cc(N2C[C@H]3CC[C@@H](C2)[C@@H]3Nc2nc3n(n2)CCCO[C@@H]3c2ccc(F)c(F)c2F)ccn1 [Example 37, (9R)—N-[(1R,5S)-3-(2-methoxy-4-pyridyl)-3-azabicyclo[3.2.1]octan-8-yl]-9-(2,3,4-trifluorophenyl)-5,6,7,9-tetrahydro-[1,2,4]triazolo[5,1-c][1,4]oxazepin-2-amine] — 6.1-fold lower, 0.0157 µM
